Assay [1] deals with T1, PAF binding to its specific receptor binding site on rabbit platelet plasma membranes (Oryctolagus cuniculus, UniProt G1TEI7).
T1 construct: from tissue; host or cells: rabbit platelet plasma membranes
As to the kind of experiment: Inhibition of 3H-PAF binding to platelet plasma membrane (isotopic labeling and filtration). The settings on record: for inhibition at 30000 µM: dose 30 mM; for inhibition at 30 µM: dose .03 mM. On the procedure: In vitro, they inhibit PAF-induced functions in both the cellular and tissue levels by disturbing the PAF binding to its specific receptor site. The ability of a compound of formula (I) to inhibit the PAF binding to its specific receptor binding site on rabbit platelet plasma membranes was measured by an assay developed by us.
The inhibition of H^3-PAF binding to human or rabbit platelet plasma membrane by a PAF-antagonist of Formula (I) was determined by a method employing isotopic labeling and filtration techniques. Generally, a series of Tris-buffered solutions of the selected antagonist at predetermined concentrations were prepared. Each of these solutions contains 1 pmole of ^3H-PAF, a known amount of the test antagonist, and a sufficient amount of the pH 7.0 Tris-buffer solution (10mM Tris, 0.25% bovine serum albumin, and 10 mM MgC12 per ml water) to make the final volume of 1 ml. After adding into a set of test tubes each with 100 αg of the platelet plasma […] suspension and one of the Tris-buffer solutions described above, the resulting mixture in each test tube was incubated at 0 C for about one hour or until the reaction was complete. Two control samples, one of which (Ci) contains all the ingredients described above except the antagonist and the other (C2) contains C1 plus a 1000-fold excess of unlabeled PAF, were also prepared and incubated simultaneously with the test samples. After the incubation was completed, the contents of each test tube were filtered under vacuo through a Whatman GF/C fiberglass filter and the residue washed rapidly several times with a total of 20 ml cold (0°-5°C) Tris-buffer solution. Each washed residue was then suspended in 10 ml scintillation solution (Aquasol 2, New England Nuclear, Connecticut) and the radioactivity was counted in a Packard Tri-Carb 460CD Liquid Scintillation System. Defining the counts from a test sample as "Total binding with antagonist"; the counts from the control sample C1, as "Total binding C1"; and the counts from the control sample C2 as "non-specific binding C2", the percent inhibition of each test antagonist can be determined by the following equation: [formula] Specific binding =(Total binding C1)-(non-specific binding C2)

In the next assay the test system is PAF. Kind of assay: PAF-antagonist activity, test not specified. The following applies: ranking in words, no test named.
The test system of assay [2] is PAF-induced symptoms including decreased arterial blood flow, increased vascular permeability and increased degranulation in rats. Kind of assay: Oral activity of PAF-antagonists in inhibiting PAF-induced symptoms in rats. The class given is in vivo. The following applies: oral dose 1 mg/kg, male rats weighing about 190-220g. On the procedure: • 1.) Fast rats overnight. • 2.) Weigh the rats the morning after fasting, • 3.) Suspend a test compound in 0.5% methylcellulose with 12 ounce hand homogenizer or a sonicator if necessary to yield a fine suspension. […] After the beginning of the PAF infusion as well as just before the PAF infusion, measure the following three parameters for each blood sample: • a) the arterial blood flow rate: determined by measuring the time to fill a pre-calibrated 14 µl capillary tube; • b) the vascular permeability: measured by calculating the increased hematocrit which results from loss of plasma from the circulation to extra-vascular spaces. • c) the circulatory degranulation: determined by assaying the increased plasma level of N-acetylglucosaminidase, a marker lysosomal enzyme. • 7.) Determine the percent change in each parameter of a blood sample at each post-PAF interval including the 30 minute interval, relative to the pre-PAF blood values. • 8.) Calculate the percent inhibition by the formula: % inhibition = [formula]

T1 sequence (G1TEI7 1-342): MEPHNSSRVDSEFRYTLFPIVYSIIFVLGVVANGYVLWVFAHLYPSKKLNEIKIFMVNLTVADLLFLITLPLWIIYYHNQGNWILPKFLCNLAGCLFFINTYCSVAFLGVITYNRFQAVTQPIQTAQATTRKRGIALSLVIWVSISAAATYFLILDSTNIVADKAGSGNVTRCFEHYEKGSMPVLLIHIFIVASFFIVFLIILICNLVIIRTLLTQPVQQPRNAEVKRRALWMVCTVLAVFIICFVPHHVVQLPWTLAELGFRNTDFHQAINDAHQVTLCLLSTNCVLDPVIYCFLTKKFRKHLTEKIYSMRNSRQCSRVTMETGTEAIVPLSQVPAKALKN

Consider `CCCOc1c(C#N)cc([C@H]2CC[C@H](c3cc(OC)c(OC)c(OC)c3)S2)cc1OC` (relative stereo) [3-cyano-4-propoxy-5-methoxyphenyl, trans-2-(3,4,5-trimethoxyphenyl)-5-(5-cyano-3-methoxy-4-propoxyphenyl)-tetrahydrothiophene], for which the inhibition at 30000 µM in assay [1] came out at 27%.
`CCOc1c(OC)cc([C@H]2CC[C@H](c3cc(OC)c(OC)c(OC)c3)S2)cc1C(=O)Nc1cccc(Cl)c1` (relative stereo) [(3-chlorophenyl-aminocarbonyl)phenyl, trans-2-(3,4,5-trimethoxyphenyl)-5-(3-methoxy-4-ethoxy-5-(3-chlorophenylaminocarbonyl)-phenyl)tetrahydrothiophene] yielded an inhibition at 30000 µM in assay [1] of 6%. Besides, the PAF-antagonist activity entry with PAF is listed as “most active”.
In turn, `CCCOc1c(OC)cc([C@H]2CC[C@H](c3cc(OC)c(OC)c(OC)c3)S2)cc1S(=O)(=O)CC(C)O` (relative stereo) [Trans-2-(3,4,5-trimethoxyphenyl)-5-(3-methoxy-5-(2-hydroxypropylsulfonyl)-4-propoxyphenyl)-tetrahydrothiophene] showed an inhibition at 3 µM in assay [1] (dose .003 mM) of 57%. This compound yielded an inhibition at 30 µM in assay [1] of 89%. In addition, in assay [2], the “%inhibition A = increased vascular permeability” value stood at 60% and the “%inhibition B = increased degranulation” value was 62%. Further, in the assay on PAF, the PAF-antagonist activity entry is given as “most active”.
Regarding `COc1cc(C2CCC(c3cc(OC)c(OC)c(OC)c3)S2)cnc1OC` (centres unmarked) [5,6-di-methoxy-3-pyridyl], 1000 µM produced 80% inhibition in assay [1] (dose 1 mM). Besides, the inhibition at 5000 µM in assay [1] (dose 5 mM) worked out at 96%.
Consider `COc1cc(C2CCC(c3cc(OC)c(OC)c(OC)c3)S2)cc(OC)c1OC` (centres unmarked) [same as Ar], for which the inhibition at 30 µM in assay [1] was found to be 69%.

(Values after patent publication EP0365089A2, “2-Aryl-5(3-methoxy-5-(hydroxypropylsulfonyl)-4-propoxyphenyl) tetrahydrothiophen and analogs” (MERCK & CO. INC., priority 1988, dated 1990).)
